Values joined by “and” are separate entries in the source; they are usually repeats but may differ in a detail not shown here. Equal entries are not always repeated.
Experiments:
[1] = molecular target: T1, 20S proteasome in HCT116 cell lysates, C-L activity (Homo sapiens, UniProt P28072); test: Proteasome inhibition assay in cell lysates, HCT116, C-L; settings: for percentage of proteasome inhibition, C-L, cell lysates HCT116: at 100 µM; for percentage of proteasome inhibition, C-L, cell lysates HCT116 / inhibition at 100 µM: Table 2 legend: bortezomib 10 µM, NI = No inhibition; for inhibition at 100 µM: read-out: percentage of proteasome inhibition, C-L, cell lysates HCT116, at 100 µM; for inhibition at 10 µM: read-out: percentage of proteasome inhibition, C-L, cell lysates HCT-116, at 10 µM
T1 sequence (P28072 35-239 limits assumed): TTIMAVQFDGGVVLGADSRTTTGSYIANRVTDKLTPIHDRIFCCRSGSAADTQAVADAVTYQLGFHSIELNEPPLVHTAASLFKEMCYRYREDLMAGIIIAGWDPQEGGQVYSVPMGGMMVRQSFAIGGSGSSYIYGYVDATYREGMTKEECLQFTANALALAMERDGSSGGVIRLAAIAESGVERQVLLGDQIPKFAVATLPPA
T1 sequence (Q99436 44-277 partner): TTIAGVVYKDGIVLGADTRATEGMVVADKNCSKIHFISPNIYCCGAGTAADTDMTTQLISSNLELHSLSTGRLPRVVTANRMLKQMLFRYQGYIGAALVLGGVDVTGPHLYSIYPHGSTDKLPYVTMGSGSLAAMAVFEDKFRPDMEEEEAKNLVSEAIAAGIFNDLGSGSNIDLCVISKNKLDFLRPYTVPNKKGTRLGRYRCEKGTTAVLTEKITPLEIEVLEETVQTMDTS
Procedure: (§1) Cells were obtained from several cultured cell lines: Jurkat, K562, HT-29, and HCT116. Pellets with 20 × 10^6 cells were prepared and washed with cold sterile phosphate buffered saline (PBS), 1×, pH 7.4 (Gibco, Thermo Fisher Scientific, Paisley, UK). […] Cells were resuspended in buffer containing 50 mM TRIS-HCl pH 7.4 (Nzytech, Lisboa, Portugal), 5 mM MgCl2 (≥98% purity, Merck, Hamburg, Germany), 1 mM DTT (Merck, Hamburg, Germany), 2 mM ATP (≥98% purity, Enzo Life Sciences Inc., Farmingdale, NY, USA), and 250 mM saccharose (Merck, Hamburg, Germany). Glass beads (Merck, Hamburg, Germany) equivalent to the volume of the cell suspension were added, and the mixture was vortexed for 2 min at 4 °C. Beads and cell debris were removed using 5 min centrifugation at 1000× g and 4 °C, followed by 20 min of centrifugation at 10,000× g at 4 °C. Cell lysates containing proteasomes were resuspended in “activity buffer” [50 mM TRIS-HCl (pH 7.4), 5 mM MgCl2, 1 mM DTT, 2 mM ATP (≥98% purity, Enzo Life Sciences Inc., Farmingdale, NY, USA), and 500 µM EDTA (≥98% purity, Merck, Hamburg, Germany)]. Protein concentration was determined using the Pierce™ BCA protocol (Thermo Fisher Scientific, Rockford, IL, USA). […] DMSO was added in an equal volume as used for the untreated compounds as a way to assess/control its influence in the assay. Untreated cells were used as control. In each well of a 96-well plate, 25 µL of lysate were seeded in duplicate with 25 µL of the compound to test; in the control, 25 µL of activity buffer were added to the 25 µL of lysate. A blank (50 µL of activity buffer) was added to the wells in quadruplicate. Cell lysates, pre-treated or not with different concentrations of the test compounds, were incubated for 30 min at 37 °C. […] Stock solutions (10 mM) of each substrate were prepared in DMSO, diluted in activity buffer, and 50 µL were added to all wells (final concentration of each substrate = 100 µM), followed by an incubation at 37 °C for 60 min. Samples fluorescence was measured at an excitation wavelength of 360 nm and emission of 465 nm; the fluorescence measures were performed using the GloMax-Multi + Detection System (Promega Corp., Madison, WI, USA). Activity was evaluated in fluorescence units, after being converted to percentage of proteasome inhibition and, whenever possible, expressed as IC50 by plotting the inhibition data of each compound at different concentrations against the log of the concentration of the inhibitor, using the GraphPad Prism software version 7. At least eight different concentrations of the test compounds were used.

[2] = molecular target: T2, isolated human 20S proteasome, C-L activity (Homo sapiens, UniProt P28072+Q99436); test: Proteasome inhibition assay in isolated human 20S proteasomes (Proteasome-Glo), C-L activity; format: biochemical; settings: for inhibition at 10 µM: read-out: percentage of proteasome inhibition, C-L, isolated 20S proteasome; for percentage of proteasome inhibition, C-L, isolated human 20S proteasome: at 100 µM, Table 1 legend: bortezomib positive control 10 µM
T2 construct: human purified erythrocyte-derived 20S proteasome; purchased Enzo Life Sciences, Inc; host or cells: human erythrocytes (natural source)
From the text: In this assay, the peptide substrates are bound to aminoluciferin (Suc-LLVY-AML for CT-L activity, Z-nLPnLD-AML for C-L, and Z-LRR-AML for T-L), leading the cleavage of these substrates by the proteasome to the release of free aminoluciferin, which is the substrate of the buffer-contained luciferase.
To evaluate human purified erythrocyte-derived 20S proteasome inhibitory activity of the chosen compounds, the Proteasome-Glo™ 3-substrate system (Promega Corporation, Madison, WI, USA) was employed. The Proteasome-Glo™ reagents of the three proteolytic activities were prepared according to the manufacturer’s instructions, aliquoted, and stored at either −20 °C or 4 °C, avoiding freezing–thaw cycles. […] The purified 20S proteasome (Enzo Life Sciences, Inc., Farmingdale, NY, USA) was diluted in HEPES buffer 10 mM, pH 7.4, to a concentration experimentally adjusted to the signal/noise ratio obtained with each particular lot of Proteasome-Glo™ reagent, in order to have a good compromise between sensitivity and linear response. […] All assays were performed in white-walled multiwell plates (Thermo Scientific™ Sterilin™ White Microtiter™ plates, Thermo Fisher Scientific, Paisley, UK) in duplicates. The proteasome solution (25 μL) was added to each well first, then the diluted solutions of the assayed compounds (25 μL), and lastly the Proteasome-Glo™ Reagent (50 μL). […] Reagents were added to the plate well on ice, and the plate was then transferred to the plate luminometer (SpectraMax®, Molecular Devices, LLC, San Jose, CA, USA) set at 37 °C, gently mixed for 30 s, and the measurements were immediately started in kinetic mode, with data collected every 5 min for at least 60 min.
All compounds were dissolved in DMSO at a concentration of 10 mM and stored at −20 °C or 4 °C. Solutions of the test compounds were prepared at their adequate dilutions in 10 mM HEPES buffer pH 7.6 before each experiment.
To calculate the proteasome activity over time, the value of mean relative luminescence units (RLU) of blank wells at each respective time point was subtracted, and then the ratio between mean RLU of the sample and mean RLU of the positive control wells was calculated for each time point and expressed as percentage.

[3] = molecular target: T3, 20S proteasome in HT-29 cell lysates, CT-L activity (Homo sapiens, UniProt P28074); test: Proteasome inhibition assay in cell lysates, HT-29, CT-L; settings: for inhibition at 10 µM: read-out: percentage of proteasome inhibition, CT-L, cell lysates HT-29, at 10 µM; for inhibition at 100 µM: read-out: percentage of proteasome inhibition, CT-L, cell lysates HT-29, at 100 µM
T3 sequence (P28074 60-263): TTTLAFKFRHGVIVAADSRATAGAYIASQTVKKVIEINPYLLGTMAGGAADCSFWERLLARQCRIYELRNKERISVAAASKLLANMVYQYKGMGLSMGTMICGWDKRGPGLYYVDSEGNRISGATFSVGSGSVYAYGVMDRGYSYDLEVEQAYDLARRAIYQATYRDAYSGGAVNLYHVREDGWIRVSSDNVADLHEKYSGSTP
T3 sequence (P20618 29-241 partner): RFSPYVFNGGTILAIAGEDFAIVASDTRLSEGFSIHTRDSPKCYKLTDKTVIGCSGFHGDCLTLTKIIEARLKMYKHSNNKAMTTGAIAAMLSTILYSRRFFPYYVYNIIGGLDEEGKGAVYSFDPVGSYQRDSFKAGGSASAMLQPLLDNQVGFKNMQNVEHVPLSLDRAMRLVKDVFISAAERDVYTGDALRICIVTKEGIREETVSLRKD
Procedure: as §1

[4] = at 100 µM, Table 2 legend: bortezomib 10 µM
[5] = Table 2 legend: bortezomib 10 µM

Row | percentage of proteasome inhibition, C-L, cell lysates HCT-116 ([1]; at 10 µM) | percentage of proteasome inhibition, C-L, cell lysates HCT116 [1] | inhibition at 10 µM [2] | percentage of proteasome inhibition, C-L, isolated human 20S proteasome [2] | percentage of proteasome inhibition, CT-L, cell lysates HT-29 ([3]; at 10 µM) | percentage of proteasome inhibition, CT-L, cell lysates HT-29 [3, 4] | IC50 [1] | inhibition at 100 µM [1] | inhibition at 10 µM [1] | IC50 [3] | inhibition at 10 µM [3] | inhibition at 100 µM [3, 5] | SMILES
1 | 94.21% | 99% | 33.8% | 92.80% and 93% | 97.99% | 99.37% and 99% |  |  |  |  |  |  | CC(C)C[C@H](NC(=O)[C@H](Cc1ccccc1)NC(=O)c1cnccn1)B(O)O [Bortezomib, bortezomib, reference compound]
2 |  | 71% | 0% | 54.47% and 55% |  | 62% | 75.6 µM | 71.2% | 0% | 90.8 µM | 0% | 62.1% | Cc1ccc2ccccc2c1CSc1ncnc2c1ncn2C1OC(CO)C(O)C1O (stereo not shown) [Compound 1]
3 |  | 74% | 90.8% | 97.86% and 98% |  | 62% | 43.5 µM | 74.1% | 11.1% | 73.8 µM | 2.11% | 62.2% | O=C1c2ccccc2C(=O)c2c(Nc3ccc(S(=O)(=O)N(CCO)CCO)cc3)ccc(O)c21 [Compound 2]
4 |  |  | 9.9% | 88.38% and 88% |  | 31% |  | 0% | 0% |  | 0% | 31.4% | Cc1ccc(/C(=N/NS(=O)(=O)c2ccc([N+](=O)[O-])cc2)Sc2cc(Cl)c(C)cc2S(N)(=O)=O)cc1 [Compound 3]
5 |  | 90% | 5.8% | 77.65% and 78% |  | 98% | 28.9 µM | 90.1% | 69.2% | 31.3 µM | 10.1% | 97.9% | C#CCCN1CCN(c2ccc(-n3c(=O)ccc4cnc5ccc(-c6ccc(N)nc6)cc5c43)cc2C(F)(F)F)CC1 [Compound 4, 9-(6-Aminopyridin-3-yl)-1-(4-(4-(but-3-yn-1-yl)piperazin-1-yl)-3-(trifluoromethyl)phenyl)benzo[h][1,6]naphthyridin-2(1H)-one]
6 |  | 28% | 0% | 33.57% and 34% |  | 81% |  | 28.1% | 0% | 84.3 µM | 0% | 81.2% | CC(C)c1nc(CN(C)C(=O)N[C@@H](CCN2CCOCC2)C(=O)N[C@H](CC[C@H](Cc2ccccc2)NC(=O)OCc2cncs2)Cc2ccccc2)cs1 [Compound 5, cobicistat, reference compound]
